A melting point compilation (Tetko et al.)

| SMILES | melting point [°C] |
| --- | --- |
| O=C(O)c1ccc2c(=O)[nH]c(CCl)nc2c1 | 344 to 346 |
| Cc1ccc(N)cc1S(=O)(=O)N(C)C | 80 to 84 |
| Nc1cc(-c2ccc(I)cc2)no1 | 159 to 161 |
| Clc1noc(-c2ccoc2)n1 | 48 to 50 |
| NS(=O)(=O)c1ccc(S(=O)(=O)N2CCC(C(=O)O)CC2)cc1 | 190 to 192 |
| Cn1ccc(CCl)cc1=O | 64 to 66 |
| Cc1cccc(NC(=S)NN)c1C | 170 to 172 |
| O=C(O)CC1CCc2ccccc2C1 (configuration not stated) | 80 to 82 |
| Nc1cc(-c2cc(Cl)cc(Cl)c2)[nH]n1 | 159 to 161 |
| Nc1cc(I)ccc1Cl | 56 to 58 |
| O=C(O)C1(O)CCSCC1 | 118 to 120 |
| N=C(N)NS(=O)(=O)c1ccccc1 | 211 to 213 |
| COC(=O)c1sc(C)c(Br)c1O | 95 to 97 |
| Cn1cnc(-c2ccc(N)cc2)n1 | 138 to 140 |
| COc1ccc(C(=O)NC(=O)CCl)cc1 | 160 to 162 |
| O=C(CCl)N(Cc1ccc(F)cc1)C1CCCCC1 | 73 to 75 |
| NNC(=O)NCc1ccco1 | 88 to 90 |
| CC1NC(=O)c2ccccc2N(C)C1=O (configuration not stated) | 250 to 252 |
| NC1CCN(c2ccc(Cl)cc2)C1=O (configuration not stated) | 80 to 82 |
| O=C(O)Cn1nc(-c2ccc(F)cc2)oc1=O | 110 to 112 |
| CCOC(=O)c1ccc(-n2ccnc2)c(N)c1 | 89 to 93 |
| CCn1c(NN)nc2ccccc2c1=O | 159 to 161 |
| Nc1ccc(OC(F)F)c2ncccc12 | 119 to 121 |
| Nc1ccc(S(=O)(=O)NC2CC2)cn1 | 169 to 171 |

| SMILES | melting point [°C] |
| --- | --- |
| CC(C)C(Br)C(=O)Nc1cc(Cl)ccc1Cl (configuration not stated) | 126 to 128 |
| Cc1sc2nc(N)[nH]c(=O)c2c1C | 353 to 355 |
| Nc1ccccc1CN1CCC(CO)CC1 | 79 to 81 |
| CC1CCN(Cc2nc3sc4c(c3c(=O)[nH]2)CCC4)CC1 | 256 to 258 |
| O=C(O)CNC(=O)c1cccc(OCc2ccccc2)c1 | 185 to 187 |
| Fc1ccc(-c2nc(CCl)cs2)cc1 | 54 to 56 |
| Nc1nc(Cl)c(C=O)c(N2CCCC2)n1 | 176 to 178 |
| CCCCCCOc1ccc(C=O)cc1OC | 38 to 42 |
| O=S(=O)(Nc1ccc(O)cc1)c1ccccc1 | 156 to 158 |
| CCC(C#N)(CC)NC(=O)OC(C)(C)C | 98 to 100 |
| COc1ccc(C2(C(=O)O)CCCCC2)cc1OC | 124 to 126 |
| O=C(CCl)N1CCCC1 | 56 to 58 |
| Cc1oc(-c2ccccc2F)nc1C(=O)O | 174 to 176 |
| CC(C)(O)c1nc2ccccc2s1 | 89 to 91 |
| Cc1ccc(-n2cc(C=O)c(C(C)(C)C)n2)cc1 | 79 to 81 |
| N#Cc1cccc(C(=O)N2CCCCC2)c1 | 61 to 63 |
| O=S(=O)(Cl)c1ccc2oc3ccccc3c2c1 | 134 to 136 |
| O=C(Nc1nccs1)C1CCCNC1 (configuration not stated) | 178 to 180 |
| O=Cc1cc(C(=O)O)cs1 | 173 to 175 |
| O=C(O)CCC1NC(=O)N(c2ccc(F)cc2F)C1=O (configuration not stated) | 183 to 185 |
| O=C(Nc1nccs1)OCC(F)(F)F | 167 to 169 |
| COc1ccc(Cl)cc1CO | 56 to 61 |
| O=C(CCl)NNC(=O)C1CC1 | 185 to 187 |
| N#CCC1C(=O)Nc2ccccc21 (configuration not stated) | 161 to 163 |

| SMILES | melting point [°C] |
| --- | --- |
| Cc1ccc(S(N)(=O)=O)cc1N(C)C | 126 to 128 |
| CC(C)(C)OC(=O)NC1CCCC1CN (configuration not stated) | 99 to 101 |
| COc1cc(OC)c2c(-c3ccccc3)cc(S)nc2c1 | 230 to 232 |
| COc1cc(C=O)c([N+](=O)[O-])cc1OCC(F)(F)F | 150 to 152 |
| CCCn1c(=O)n(C)c(=O)c2c(S)nc(C(C)C)nc21 | 204 to 206 |
| O=C(O)C=Cc1cc(Cl)ccc1OCc1ccccc1Br | 207 to 209 |
| O=C1CC2(Cc3ccccc3C2)C(=O)O1 | 164 to 166 |
| Cc1ccc2c(Cl)cc(Cl)c(OCC(=O)O)c2n1 | 209 to 211 |
| CC(C)NC(=O)NC(=O)CCl | 86 to 88 |
| Cc1cccc(C2(C(=O)O)CCCC2)c1 | 156 to 158 |
| CC(Cl)C(=O)NC(C)c1ccc2c(c1)OCCO2 (configuration not stated) | 110 to 112 |
| N#CCn1cc(Br)cn1 | 60 to 62 |
| Cc1cc(N)n(N)c(=O)c1 | 193 to 195 |
| O=C(O)c1ncoc1CCC(F)(F)F | 139 to 141 |
| COc1ccccc1-n1nnnc1S | 153 to 155 |
| O=C(O)C1(O)CCSC1 (configuration not stated) | 99 to 101 |
| O=C1CN(Cc2ccc(Br)cc2F)CCN1 | 142 to 144 |
| Nc1ccc(F)c(NC(=O)c2ccccc2I)c1 | 147 to 149 |
| COC(=O)c1coc(-c2cccc(C#N)c2)n1 | 183 to 185 |
| CC(C)CCNC(=O)CC(=O)NCCC(C)C | 69 to 71 |
| CCCC(=O)NC1CCCNC1 (configuration not stated) | 57 to 59 |
| O=C(O)CN1C(=O)Cn2c(cc3ccccc32)C1=O | 331 to 333 |
| Cc1ccc(S(=O)(=O)c2ccc(CBr)cc2)cc1 | 137 to 139 |
| O=C(O)Cn1c(=O)[nH]c2ccccc2c1=O | 295 to 297 |
